Experimental data taken from US6448239B1, “Peroxynitrite decomposition catalysts and methods of use thereof” (Trustees of Princeton University, priority 1999, dated 2002).

Key:
calf thymus DNA (CT-DNA) = test: Calf thymus-DNA titration (UV-visible spectrum); assay type: binding
Protocol: A 5 μM solution of 4-T(CX)PyP was prepared in 10 mM tris buffer+1 mM EDTA (pH=8.0). To 2 mL of this solution in a quartz cuvette, 1 μL aliquots of a 1.89 mM solution of calf thymus DNA (CT-DNA) in 10 mM tris+1 mM EDTA were added. The concentration of CT-DNA was determined by UV-visible spectrum. After each addition, the cuvette was vortexed to ensure good mixing, and the UV-visible spectrum was recorded. […] Several intermediate spectra were omitted for clarity.
The porphyrin 2-T(CX)PyP was titrated in an analogous way to 4-T(CX)PyP, as described above. […] Presumably, the ortho carboxamide groups provide sufficient steric bulk to prevent association of the positively-charged pyridyl groups with the negatively-charged sugar phosphate backbone. Even when CT-DNA was added in large excess to the solution of porphyrin, a redshift of only […] was observed.

plasmid pBR322 = test: Cleavage of plasmid DNA with manganese pyridyl porphyrins, agarose gel; conditions: 1 mM Mn porphyrin, 50 μg/mL plasmid, 10 mM or 25 mM oxone, 5 min
Text: Three forms of plasmid DNA are expected when Mn porphyrins interact with and cleave DNA, and they can be easily separated on an agarose gel. Uncleaved, supercoiled plasmid (Form I) will show the greatest mobility. In the event of a nick in the DNA, the supercoils will relax, and the open circular form of the plasmnid (Form II) will appear. Further oxidation will cleave the second strand of DNA as well, and leads to a linear form (Form III.) The relative electrophoretic mobilities are as follows: I>III>II.
Two concentrations of oxidant were used: 10 mM and 25 mM. All experiments were performed in 40 mM tris buffer+100 mM NaCl. […] Before reaction, porphyrin was allowed to incubate with plasmid for 30 min.
A typical reaction was performed as follows: to a solution of 1 mM manganese porphyrin and 50 μg/mL plasmid in buffer was added enough oxone to make a final concentration of 10 mM or 25 mM. (Volume of the entire reaction was 20 μL.) The reaction mixture was vortexed, then allowed to react for 5 min. HEPES buffer (100 mM) was added to stop the reaction.
Each sample was electrophoresed on a 1% agarose slab horizontal gel at 90V for 1 h at 24° C. in 40 mM tris-acetate (TAE) and 1 mM ETDA buffer. The agarose gel contained ethidium bromide (1 μg/mL) so that the lanes could be visualized by UV-vis, and the finished gel was photographed under UV illumination. Lanes 1-4 were run at 10 mM oxone, and lanes 5-8 were run at 25 mM oxone. The control lanes, C1 and C2, contained 10 mM and 25 mM oxone, respectively, but no porphyrin. […] The lane assignments include the following: lane 1: Mn 4-T(CX)PyP, lane 2: Mn 2-T(CX)PyP; lane 3, Mn 2-T(PEG3)PyP; lane 4: Mn 4-TMPyP; lane C1: plasmid+10 mM oxone; lane C2: Plasmid+25 mM oxone

For “4-Tetrakis(carboxamide)pyridyl Porphyrin [4-T(CX)PyP]”, the “redshift of Soret band (Δλmax)” value (calf thymus DNA (CT-DNA); 5 μM porphyrin, 10 mM tris + 1 mM EDTA pH=8.0) was 12 nm, the “binding constant to DNA” value (calf thymus DNA (CT-DNA); calculated from the titration) was 7.99×10^6 and the “association with DNA (in words)” value (calf thymus DNA (CT-DNA); from change in Soret band) was “both porphyrin intercalation into DNA and outside stacking of porphyrin along the DNA backbone”.
In the case of “Mn(III) 2-tetrakis(carboxamide)pyridyl porphyrin [Mn 2-T(CX)PyP]”, the “appearance of linear form of DNA (Form III)” value (plasmid pBR322) is reported as “does not appear at all”.
In the case of “Mn(III) 2-tetrakis(triethylene glycol monomethyl ether)pyridyl porphyrin [Mn 2-T(PEG3)PyP]”, the “appearance of linear form of DNA (Form III)” value (plasmid pBR322) is reported as “does not appear at all”.
For “Mn(III) 4-tetrakis(carboxamide)pyridyl porphyrin [Mn 4-T(CX)PyP]”, the “degree of plasmid cleavage” value (plasmid pBR322) was “greatest degree of plasmid cleavage”.
